Data as given in article PMC7367283, “A PIP2 substitute mediates voltage sensor-pore coupling in KCNQ activation” (Communications Biology, 2020).
Several values for one entry are separate records, joined by “and”; a condition that tells them apart may be missing. Identical values can stand only once.

Molecular target: T1, IKs current (Chromanol 293B sensitive current) (Cavia porcellus, UniProt O70344)
T1 construct: Single ventricular myocytes were acutely enzymatically isolated from guinea pig heart; endogenous in cells; host or cells: freshly isolated guinea pig ventricular myocytes
T1 sequence (O70344 1-671): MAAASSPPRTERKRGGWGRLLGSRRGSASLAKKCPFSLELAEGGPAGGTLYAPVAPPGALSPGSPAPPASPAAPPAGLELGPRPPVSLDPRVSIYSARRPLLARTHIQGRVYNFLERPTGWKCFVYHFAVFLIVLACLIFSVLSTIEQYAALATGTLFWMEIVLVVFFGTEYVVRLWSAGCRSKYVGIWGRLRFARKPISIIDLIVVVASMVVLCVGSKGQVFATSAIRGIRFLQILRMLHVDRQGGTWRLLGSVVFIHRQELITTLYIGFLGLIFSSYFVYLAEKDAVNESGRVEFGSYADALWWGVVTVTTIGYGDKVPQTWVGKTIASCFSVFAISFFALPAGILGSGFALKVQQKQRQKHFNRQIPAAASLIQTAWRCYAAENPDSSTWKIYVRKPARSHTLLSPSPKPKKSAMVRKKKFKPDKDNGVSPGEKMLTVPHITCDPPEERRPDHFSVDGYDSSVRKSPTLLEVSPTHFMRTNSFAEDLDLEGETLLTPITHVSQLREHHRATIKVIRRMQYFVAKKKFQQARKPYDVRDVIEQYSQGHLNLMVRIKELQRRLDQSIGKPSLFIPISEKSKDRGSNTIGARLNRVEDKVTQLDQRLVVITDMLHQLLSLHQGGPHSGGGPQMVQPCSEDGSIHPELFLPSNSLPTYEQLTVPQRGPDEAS
Test: IKs measurements in isolated ventricular cells (whole-cell patch clamp);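 on IKs current against voltage, source data Fig. 7d: tail currents measured at the -20 mV return potential after each test voltage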
Type: cell-based, guinea pig
Parameters: key to IKs current against time, source data Fig. 7b: IKs current normalized to cell capacitance (current density)
Conditions: for IKs current against voltage, source data Fig. 7d / IKs current against time, source data Fig. 7b: individual cells
Source text: The KCNQ1 and KCNE1 complex forms the cardiac IKs channel, which is important in terminating cardiac action potentials and regulating heart rate[1],[2],[13]. We tested if CP1 modulates the IKs channel in cardiac myocytes. Similar to the results from KCNQ1 + KCNE1 expressed in Xenopus oocytes, in guinea pig ventricular myocyte CP1 enhanced IKs current (Chromanol 293B sensitive current) amplitude (Fig. 7a–c), shifted the G–V relation to more negative voltages (Fig. 7d, e), and slowed the kinetics of deactivation (Fig. 7a).
Fig. 7 Effects of CP1 on IKs and action potentials in cardiomyocytes. a IKs currents in guinea pig ventricular myocytes in the absence and presence of 30 µM CP1 in the whole-cell patch-clamp configuration. Holding potential: −40 mV; testing potentials: −20 to +60 mV with 10-mV increment; returning potential: −20 mV. […] Guinea pig ventricular myocytes were first perfused with 10 µM CP1 and 10 µM chromanol. After APD reached steady state, 10 µM CP1 was constitutively perfused alone. Last, CP1 was washed out for near-full reversal of APD shortening. g Effects of 0.2 µM CP1 on LQT action potentials. To mimic the LQT, 100 µM moxifloxacin was applied 2 h before the treatment of CP1. h Change of action potential duration after application of different [CP1]s (n = 5–7). Tukey–Kramer ANOVA test was used to compare control cells in different CP1 concentration, # is significant at P < 0.05. Unpaired two-tailed Student t tests were used to compare control and moxifloxacin cells at different CP1 concentration: * is significant at P < 0.05.
The use of guinea pigs was approved by the Stony Brook University Institutional Animal Care and Use Committee. Single ventricular myocytes were acutely enzymatically isolated from guinea pig heart as previously described. Guinea pigs, weighing 300–500 g, were sacrificed by peritoneal injection of sodium pentobarbitone (1 ml, 390 mg/ml). The isolated cells were stored in KB solution containing (in mM) 83 KCl, 30 K2HPO4, 5 MgSO4, 5 Na pyruvate, 5 β-OH-butyric acid, 20 creatine, 20 taurine, 10 glucose, and 0.5 EGTA, pH 7.2.
An Axopatch 1D amplifier (Axon Instruments, Inc.) and the whole-cell patch-clamp technique were used to measure the IKs current. The patch pipette solution contained (in mM) 140 KMeSO3, 20 HEPES, 2 KCl, 5 EGTA, and 5 MgATP, pH 7.4. The external Tyrode contains (in mM) 137.7 NaCl, 2.3 NaOH, 8 KCl, 1 MaCl2, 5 HEPES, 1 CdCl2, and 10 Glucose, pH 7.4. The cells were held at −40 mV and stepped to −20 mV, then to +60 mV with an increment of 10 mV, to measure the membrane current in the absence and the presence of chromanol 293B (10 μM). The chromanol 293B sensitive current was defined as the IKs current normalized to its cell capacitance. These experimental protocols and conditions eliminate most of the other membrane currents, such as IP, INa, ICa, and INa/Ca, except IK, so that we could obtain better experiment resolution.
Electrophysiology data were processed with IGOR (Wavemetrics, Lake Oswego, OR), Clampfit (Molecular Devices, Sunnyvale, CA), and SigmaPlot (SPSS, Inc., San Jose, CA). Normalized tail currents were plotted versus prepulse voltage and fitted with the Boltzmann function G = G0 + 1/(1 + exp(V − V1/2)/S), where G0 is the minimum conductance, V1/2 is the half-maximal voltage of activation, and S is the slope factor. Dose–response curves in Fig. 3 were fitted with the Hill equation, E = […], where EC50 is the drug concentration producing the half-maximum response and P is the Hill coefficient. In Fig. 7c, e, the EC50 values were obtained by fitting the data to IKs = IMin + (IMax − IMin) ([CP1]/([CP1] + EC50)) and V1/2 = V1/2 min + (V1/2Max − V1/2 min) ([CP1]/([CP1] + EC50)). The deactivation time course was fitted with single-exponential function. All data are expressed as mean ± SEM (n ≥ 3 or otherwise indicated). […]

- IKs current against voltage, source data Fig. 7d (6 µM CP1, V -10 mV): 0.0746 and 0.3017 and 0.5691 and 0.6051
- EC50 (at +60 mV, read-out: EC50 of IKs current amplitude): 7.54 µM
SMILES: O=S(=O)([O-])Oc1c(-c2sc3c(ccc4cccc(Cl)c43)c2OS(=O)(=O)[O-])[nH]c2ccc(Br)cc12.[Na+].[Na+] [CP1, DISODIUM 5-BROMO-2-[9-CHLORO-3-(SULFONATOOXY) NAPHTHO [1,2-B] THIEN-2-YL]-1H-INDOL-3-YL SULFATE]
- IKs current against voltage, source data Fig. 7d (0.2 µM CP1, V 0 mV): 0.1478 and -0.1008 and 0.4867 and 0.5994 and 0.4202 and 0.2428
- IKs current against voltage, source data Fig. 7d (0.2 µM CP1, V 10 mV): 0.1364 and -8.00E-03 and 0.5359 and 0.687 and 0.4359 and 0.4419
- IKs current against voltage, source data Fig. 7d (0.2 µM CP1, V 20 mV): 0.5204 and 0.1788 and 0.7643 (2×) and 0.8582 and 0.5444
- IKs current against voltage, source data Fig. 7d (0.2 µM CP1, V 30 mV): 0.487 and 0.358 and 1.0844 and 1.2573 and 1.0686 and 0.7892
- IKs current against voltage, source data Fig. 7d (0.2 µM CP1, V 40 mV): 1.432 and 0.5726 and 1.6914 and 1.171 and 1.2536 and 1.1694
- IKs current against voltage, source data Fig. 7d (0.2 µM CP1, V 50 mV): 1.7002 and 1.1486 and 1.9537 (2×) and 1.6685 and 1.6372
- IKs current against voltage, source data Fig. 7d (0.2 µM CP1, V 60 mV): 2.1519 and 1.35 and 2.301 (2×) and 1.8192 and 1.8132
- IKs current against voltage, source data Fig. 7d (0.2 µM CP1, V -10 mV): 0.058 and -0.1764 and 0.4431 and 0.2854 and 0.2431 and 0.2625
- IKs current against voltage, source data Fig. 7d (0.2 µM CP1, V -20 mV): -0.0553 and -0.0272 and 0.3362 and 0.2344 and 0.1098 and 0.1296
- IKs current against time, source data Fig. 7b (0.2 µM CP1, time 0.5 s): -0.15 and 2.22E-03 and 0.4227 and 0.5059 and 0.5369 and 0.8337
- IKs current against time, source data Fig. 7b (0.2 µM CP1, time 1.5 s): 1.1736 and 1.2252 and 1.6869 and 1.7762 and 1.8153 and 1.921
- IKs current against time, source data Fig. 7b (0.2 µM CP1, time 2.5 s): 2.3476 and 2.2614 and 2.5619 and 2.5792 and 2.5781 and 2.9902
- IKs current against time, source data Fig. 7b (0.2 µM CP1, time 3.5 s): 4.1533 and 3.1046 and 3.3699 and 3.1301 and 3.5796 and 4.2972
- IKs current against time, source data Fig. 7b (0.2 µM CP1, time 4.5 s): 4.9536 and 3.6388 and 3.9362 and 3.649 and 4.0225 and 4.5344
- IKs current against voltage, source data Fig. 7d (6 µM CP1, V 0 mV): 0.1828 and 0.4288 and 0.6932 and 0.8299 and 0.4703 and 1.0496
- IKs current against voltage, source data Fig. 7d (6 µM CP1, V 10 mV): 0.4205 and 0.6933 and 0.9149 and 1.2568 and 0.6403 and 1.5345
- IKs current against voltage, source data Fig. 7d (6 µM CP1, V 20 mV): 0.8957 and 1.1412 and 1.496 and 1.8852 and 1.1797 and 2.1199
- IKs current against voltage, source data Fig. 7d (6 µM CP1, V 30 mV): 2.1345 and 1.6765 and 2.1151 and 2.7982 and 1.9302 and 2.5318
- IKs current against voltage, source data Fig. 7d (6 µM CP1, V 40 mV): 3.0845 and 2.1666 and 2.3348 and 3.4682 and 2.4976 and 3.0115
- IKs current against voltage, source data Fig. 7d (6 µM CP1, V 50 mV): 3.95 and 2.5666 and 2.4371 and 4.0362 and 3.2962 and 3.3006
- IKs current against voltage, source data Fig. 7d (6 µM CP1, V 60 mV): 4.0182 and 2.7319 and 3.0293 and 4.3101 and 3.6782 and 3.5497
- IKs current against time, source data Fig. 7b (6 µM CP1, time 0.5 s): 2.2824 and 1.9027 and 1.3849 and 1.6373 and 2.0899 and 2.4967
- IKs current against time, source data Fig. 7b (6 µM CP1, time 1.5 s): 5.0013 and 4.6878 and 3.7768 and 4.1793 and 4.2368 and 4.8342
- IKs current against time, source data Fig. 7b (6 µM CP1, time 2.5 s): 7.088 and 6.1654 and 5.3805 and 5.9272 and 5.6946 and 5.9483
- IKs current against time, source data Fig. 7b (6 µM CP1, time 3.5 s): 7.9334 and 7.0333 and 6.1833 and 7.248 and 6.5654 and 6.4263
- IKs current against time, source data Fig. 7b (6 µM CP1, time 4.5 s): 8.5672 and 7.9674 and 7.2346 and 7.483 and 7.0133 and 6.9913
- IKs current against time, source data Fig. 7b (30 µM CP1, time 0.5 s): 7.2666 and 7.1831 and 9.1229 and 4.6448 and 5.4151 and 6.3301 and 8.2811
- IKs current against time, source data Fig. 7b (30 µM CP1, time 1.5 s): 8.5502 and 9.0214 and 10.3674 and 6.9314 and 7.3351 and 7.6047 and 9.524
- IKs current against time, source data Fig. 7b (30 µM CP1, time 2.5 s): 9.051 and 9.8065 and 11.122 and 8.4037 and 8.6405 and 8.1616 and 9.9386
- IKs current against time, source data Fig. 7b (30 µM CP1, time 3.5 s): 9.3536 and 10.9247 and 11.9708 and 9.4071 and 9.5173 and 8.9351 and 10.1733
- IKs current against time, source data Fig. 7b (30 µM CP1, time 4.5 s): 10.006 and 11.718 and 12.1269 and 10.5686 and 10.3666 and 9.5544 and 10.5156
